Results on ten molecules are retold here after paper PMC10767194 (The Journal of Biological Chemistry, 2023).

By IC50 is commonly meant the concentration that inhibits the measured activity by half. The term Kd denotes the constant that tells how readily two partners part at equilibrium. A high value points to a looser complex.

The target of experiment [1] is T1, Cdk12/CycK (Homo sapiens, UniProt Q9NYV4).
T1 construct: GST (TEV site) (N, cleaved yes); made in house; host or cells: Sf9 insect cells, co-expressed with S. cerevisiae CAK1
T1 sequence (Q9NYV4 714-1063, one chain of several): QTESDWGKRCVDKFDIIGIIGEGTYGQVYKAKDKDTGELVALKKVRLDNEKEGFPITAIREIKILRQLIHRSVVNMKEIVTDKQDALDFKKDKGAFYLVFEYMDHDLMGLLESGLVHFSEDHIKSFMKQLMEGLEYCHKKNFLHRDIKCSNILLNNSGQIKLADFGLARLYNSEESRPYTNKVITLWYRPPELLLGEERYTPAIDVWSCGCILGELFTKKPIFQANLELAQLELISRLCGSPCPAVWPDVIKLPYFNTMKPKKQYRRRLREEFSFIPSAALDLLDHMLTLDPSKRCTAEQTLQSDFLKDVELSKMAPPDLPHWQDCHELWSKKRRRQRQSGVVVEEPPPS
As to the kind of experiment: radioactive in vitro kinase assay, Cdk12/CycK. The experiment is classed as biochemical. To be noted: 20 min; for inhibitory effect on Cdk12/CycK activity, in words: 0, 0.1, 1, 10, 100 μM compound, 0.2 μM Cdk12, 0.2 mM ATP, His-c-Myc; for IC50: 0.2 μM kinase, 0.2 mM ATP, 50 μM His-c-Myc, sigmoidal fit. On the procedure:
To a concentration of 0.2 μM kinase and 0.2 mM ATP, a compound concentration ranging from 0.1 nM to 1 mM was applied. Kinase reactions were started by the addition of 100 μM CTD peptide containing three hepta-repeats continuously prephosphorylated at position S7 (pS7-CTD[3]) and terminated after 60 min incubation time. In vitro IC50-values were determined by applying a sigmoidal fit to dose-response measurements (Fig. 1A).
Cdk12 kinase (0.2 μM) in the presence of 0.2 mM ATP were supplemented with respective compounds at concentrations of 0, 0.1, 1, 10, and 100 μM for 5 min. Upon addition of 50 μM His-c-Myc substrate the kinase assay reaction was conducted for 20 min.
Radioactive kinase activity assays were performed in a total volume of 15 μl per sample in kinase assay buffer (50 mM Hepes/pH 7.6, 34 mM KCl, 7 mM MgCl2, 5 mM β-glycerol phosphate, and 2.5 mM dithioerythritol). Preincubation of 0.2 μM or 0.02 μM recombinant protein kinase with indicated concentrations of respective inhibitor and 0.2 to 2 mM ATP containing 0.45 mCi [^32P]-γ-ATP/ml (PerkinElmer) was carried out for 5 min. Kinase reactions were started by addition of substrate protein (10 μM GST-Rb1 for Cdk4/CycD3, 10 μM GST-CTD[52] for Cdk7/CycH/MAT1, 50 μM His-c-Myc for all others) and incubated for 20 min at 30 °C in a shaking incubator at 300 rpm. For pS7-CTD[3] peptide, the substrate concentration was increased to 100 μM and assays were performed for 60 min. Reactions were terminated by the addition of EDTA to a final concentration of 50 mM. Reaction samples were separately spotted onto Amersham Protran nitrocellulose membranes (GE HealthCare) and subsequently washed three times for 5 min in PBS. Samples were transferred to 4 ml liquid scintillation vials and 2 ml liquid scintillator (Ultima Gold) were added. Radioactive counts were determined in a Beckman Liquid Scintillation Counter (Beckman Coulter) for 1 min. […] For analysis of dose response measurements and IC50 value determination, data of inhibitor-supplemented samples were normalized to DMSO solvent controls and their activity plotted against the inhibitor concentration. IC50 values were extracted from triplicate measurements by sigmoidal curve fitting using DataGraph (v. 5.0; https://www.visualdatatools.com/DataGraph/) or were determined by applying the Morrison quadratic equation for tight binding inhibitors using GraphPad Prism 10 (https://www.graphpad.com/) ([40]).

For experiment [2], the target named is T1, Cdk12/CycK. Put plainly: SPR single-cycle kinetics, active Cdk12*/CycK. To be noted: T-loop phosphorylated active kinase (CAK1 coexpressed), 1:1 binding model.
A further experiment deals with T2, Cdk9/CycT1 (Homo sapiens, UniProt P50750).
T2 construct: Full-length, human, WT Cdk9 (residues 1–372, UniProt P50750); made in house; host or cells: Cdk9: Sf9 insect cells; CycT1: E. coli
T2 sequence (P50750 whole entry, the tested form may be a part): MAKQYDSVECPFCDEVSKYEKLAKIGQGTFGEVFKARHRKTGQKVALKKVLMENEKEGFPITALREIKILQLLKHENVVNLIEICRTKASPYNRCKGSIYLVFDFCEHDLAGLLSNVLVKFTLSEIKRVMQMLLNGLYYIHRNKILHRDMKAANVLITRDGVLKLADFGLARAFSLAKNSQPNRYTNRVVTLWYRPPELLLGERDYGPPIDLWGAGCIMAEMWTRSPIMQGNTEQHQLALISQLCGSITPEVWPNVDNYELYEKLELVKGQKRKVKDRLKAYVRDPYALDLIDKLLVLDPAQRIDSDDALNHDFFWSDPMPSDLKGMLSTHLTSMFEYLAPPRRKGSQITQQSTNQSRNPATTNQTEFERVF
T2 sequence (O60563 1-272 partner limits assumed): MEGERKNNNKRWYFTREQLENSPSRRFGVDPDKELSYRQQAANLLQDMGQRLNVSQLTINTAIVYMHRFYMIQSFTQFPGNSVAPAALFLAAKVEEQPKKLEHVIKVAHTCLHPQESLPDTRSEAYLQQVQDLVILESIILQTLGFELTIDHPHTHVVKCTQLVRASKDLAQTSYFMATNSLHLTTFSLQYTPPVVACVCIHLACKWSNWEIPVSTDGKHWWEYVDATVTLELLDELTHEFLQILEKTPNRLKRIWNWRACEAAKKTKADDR
As to the kind of experiment: SPR single-cycle kinetics, Cdk9/CycT1. Particulars: 1:1 binding model. The method, then:
The protein kinases were immobilized on a CM5 chip using the amine-coupling method. […] The fully active and T-loop phosphorylated kinase preparations of Cdk12∗/CycK and Cdk13∗/CycK were obtained through coexpression with Cdk-activating kinase 1 (CAK1) from Saccharomyces cerevisiae. […] For comparison, we measured the affinity of NVP-2 for active kinases Cdk12∗/CycK and its proposed target Cdk9/CycT1 by SPR.
SPR experiments were conducted on a Biacore 8K (Cytiva) device. The system was equilibrated in running buffer (20 mM Tris pH 8, 150 mM NaCl, 1 mM tris(2-carboxyethyl)phosphine, 0.1 mM MgCl2, 0.05% Tween20, and 2% DMSO) at 25 °C. Flow cell 1 and 2 surfaces of a CM5 sensor chip (Cytiva) were conditioned with 50 mM NaOH at a flow rate of 30 μl/min for 15 s and subsequently activated with a 1:1 mix of 0.1 M N-hydroxysuccinimide (NHS) and 0.1 M 3-(N,N-dimethylamino) propyl-N-ethyl-carbodiimide (EDC) at a flow rate of 10 μl/min for 7 min. The flow system was washed with 1 M enthanolamine (pH 8). WT and mutant kinases Cdk12/CycK, Cdk13/CycK and Cdk9/CycT1 were diluted in Mes (pH 6.5) to a final concentration of 2 μM. Immobilization of kinases was performed in running buffer without DMSO using the amine coupling method on flow cell 2 surface for 160 s at a flow rate of 10 μl/min. Free binding sites were blocked with 1 M ethanolamine pH 8.0 (10 μl/min) for 7 min. […]

Experiment [3] concerns the target T3, Cdk12 kinase domain (residues 714–1063), T-loop phosphorylated, coexpressed with CAK1 (human, UniProt Q9NYV4 714-1063, phosphothreonine at 893 (pT893)).
T3 construct: kinase domain of human Cdk12, residues 714–1063, UniProt Q9NYV4; synthetic codon-optimised gene; The final model of 8P81 holds residues 716 to 1032 of Cdk12; also called cyclin-dependent kinase 12; not shown: GST, N-terminal, cleaved
Put plainly: crystal structure; Cdk12/CycK at 12 mg/ml with 5-fold excess of SR-4835; hanging drop vapor diffusion at 15 °C; 0.1 M Mops pH 6.5, 30% PEG mix, 0.1 M NDSB; 2.68 Å. To be noted: both partners purified.

Several values for one entry are separate records, joined by “and”; a condition that tells them apart may be missing. Equal entries are not always repeated. Entries after “also recorded” stand apart in the source; their conditions may differ.

T3 sequence (Q9NYV4 714-1063): as the sequence (Q9NYV4 714-1063, one chain of several) above

Consider `COC[C@@H](C)NC1CCC(Nc2cc(-c3cccc(NCC4(C#N)CCOCC4)n3)c(Cl)cn2)CC1` (some centres unmarked) [NVP-2], for which the “inhibitory effect on Cdk12/CycK activity, in words” value on Cdk12/CycK [1] is recorded as “highest potency”. In addition, at Cdk12/CycK [1], the IC50 is 40.9 nM. For the same molecule, the Kd was 2.9 nM and 2.88 nM at Cdk12/CycK [2]; 0.1 nM on Cdk9/CycT1.
On to `CN(C)C/C=C/C(=O)Nc1ccc(C(=O)Nc2cccc(Nc3ncc(Cl)c(-c4c[nH]c5ccccc45)n3)c2)cc1` [THZ1], for which, at Cdk12/CycK [1], the “inhibitory effect on Cdk12/CycK activity, in words” value is listed as “modest effects” and the IC50 came out at 87.2 nM.
The matching figures for `CN(C)C/C=C/C(=O)Nc1ccc(C(=O)N2CCC[C@@H](Nc3ncc(Cl)c(-c4c[nH]c5ccccc45)n3)C2)cc1` [THZ531]: “modest effects” and 174 nM.
The matching figures for `CCN1CCN(Cc2ccc(Nc3ncc(F)c(-c4cc(F)c5nc(C)n(C(C)C)c5c4)n3)nc2)CC1` [abemaciclib]: “modest effects; also recorded: only weak efficacy” and 1300 nM.
With `CCc1cnn2c(NCc3ccc[n+]([O-])c3)cc(N3CCCC[C@H]3CCO)nc12` [dinaciclib], the “inhibitory effect on Cdk12/CycK activity, in words” value at Cdk12/CycK [1] is recorded as “highest potency”.
On the same count and under the same terms, then `CN1CC[C@H](c2c(O)cc(O)c3c(=O)cc(-c4ccccc4Cl)oc23)[C@H](O)C1` [flavopiridol], with “modest effects”; and `CC(=O)c1c(C)c2cnc(Nc3ccc(N4CCNCC4)cn3)nc2n(C2CCCC2)c1=O` [palbociclib], with “no inhibitory effect”; and `CN(C)C(=O)c1cc2cnc(Nc3ccc(N4CCNCC4)cn3)nc2n1C1CCCC1` [ribociclib], with “no inhibitory effect”.
For `CN1CCN(c2ccc(Nc3ncc4cc5n(c4n3)C3(CCCCC3)CNC5=O)nc2)CC1` [trilaciclib], at Cdk12/CycK [1], the “inhibitory effect on Cdk12/CycK activity, in words” value is “modest effects; also recorded: only weak efficacy” and the IC50 is 1340 nM.

B1: cyclin K cyclin box domains (residues 1–267) (domain or fragment, human, UniProt O75909 1-267, looked up)
chain: MKENKENSSPSVTSANLDHTKPCWYWDKKDLAHTPSQLEGLDPATEARYRREGARFIFDVGTRLGLHYDTLATGIIYFHRFYMFHSFKQFPRYVTGACCLFLAGKVEETPKKCKDIIKTARSLLNDVQFGQFGDDPKEEVMVLERILLQTIKFDLQVEHPYQFLLKYAKQLKGDKNKIQKLVQMAWTFVNDSLCTTLSLQWEPEIIAVAVMYLAGRLCKFEIQEWTSKPMYRRWWEQFVQDVPVDVLEDICHQILDLYSQGKQQMPH
notes: cyclin box domains of human cyclin K, residues 1–267, UniProt O75909; synthetic codon-optimised gene; The final model of 8P81 holds residues 20 to 260 of CycK; also called CycK; not shown: GST, N-terminal, cleaved
On to B1, for which the binding result in experiment [3] is “binds”.
